Measured values taken from patent publication US12138320B2, “Composition and methods for tumor imaging and treatment” (The University of Chicago, priority 2020, dated 2024).

Tests used:
[1] = target: T1, NCEH1 (Homo sapiens, UniProt Q6PIU2); assay: Gel-based competitive ABPP (FP-Rho) of cancer cells treated in situ (live cells); assay type: cell-based; conditions: live cells
T1 construct: serine hydrolase activity in membrane proteome fractions of MDA-MB231 breast cancer cells treated with the indicated concentrations; endogenous in cells; host or cells: PC3 prostate cancer cells; MDA-MB231 breast cancer cells
T1 sequence (Q6PIU2 1-408): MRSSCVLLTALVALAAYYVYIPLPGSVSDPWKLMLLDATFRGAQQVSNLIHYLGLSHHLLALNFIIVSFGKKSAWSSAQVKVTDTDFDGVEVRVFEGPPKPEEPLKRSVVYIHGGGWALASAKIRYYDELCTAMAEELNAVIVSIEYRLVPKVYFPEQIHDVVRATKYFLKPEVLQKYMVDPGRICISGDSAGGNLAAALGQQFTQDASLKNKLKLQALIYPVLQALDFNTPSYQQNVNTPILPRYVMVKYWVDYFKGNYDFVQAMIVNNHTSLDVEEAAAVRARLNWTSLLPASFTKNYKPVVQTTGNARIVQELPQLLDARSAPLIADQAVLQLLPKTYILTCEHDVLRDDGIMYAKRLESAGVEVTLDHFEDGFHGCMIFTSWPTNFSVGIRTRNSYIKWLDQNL
Protocol: (§1) Proteome Preparation: Human PC3 and MDA-MB231 cells were grown in Roswell Park Memorial Institute (RPMI) medium and Dulbecco's Modified Eagle Medium (DMEM), respectively, supplemented with 10% fetal bovine serum (FBS) and 2 mM L-glutamine, and cultured in a humidified 5% CO2 incubator at 37° C. Cells were washed twice with phosphate buffered saline (PBS, pH 7.5), collected by scraping, resuspended in 0.2 ml PBS, sonicated, and fractionated via centrifugation (100,000×g, 45 min) into a pellet (containing membrane proteins) and supernatant (containing soluble proteins). For murine proteomes, mouse tissues were Dounce-homogenized on ice in cold PBS, followed by a low-speed spin (1,400×g, 5 min) to remove debris. After sonication, the membrane and soluble proteomes were fractionated as described above. All sample pellets were washed and resuspended in PBS via sonication. Protein concentrations were determined using a Bradford protein assay kit (Bio-Rad, Hercules, California, United States of America)). Samples were stored at −80° C. until use.
Cellular JW199 Treatments: JW199 was dissolved in dimethyl sulfoxide (DMSO) vehicle, which was diluted into media or buffer before addition to cells or proteomes, respectively. For in vitro proteome experiments, the final DMSO concentration was 4%. For live cell (in situ) treatments, 2×10^6 cells were seeded in 6 cm dishes (100% confluency) 24 hours prior to JW199 treatment in serum-free media. At the end of the experiment, cells were washed and collected, as described above, for gel-based activity profiling.
Gel-based Activity Profiling: Cell lysates were treated with 1 μM fluorophosphonate-rhodamine (FP-rho) for 30 min at room temperature (50 μL total reaction volume). Reactions were quenched with one volume of standard 4× sodium dodecyl sulfate/polyacrylamide gel electrophoresis (SDS/PAGE) reducing sample buffer, resolved on 10% acrylamide SDS/PAGE gels, and visualized in-gel with a fluorescence scanner sold under the tradename CHEMIDOC™ MP (Bio-Rad, Hercules, California, United States of America). Densitometric quantification of band intensities were used to calculate the percent inhibition via JW199. 50% inhibitory concentration (IC50) values were determined from dose-response curves constructed in GraphPad Prism software from three independent replicates for each inhibitor concentration. For competitive ABPP with JW576, tumor lysates were treated with 1 μM JW576 for 30 min at 37° C. (50 μL total reaction volume). Competitive ABPP was then conducted as described above. NCEH1 activity was calculated by densitometric quantification (ImageJ software; National Institutes of Health (NIH), Bethesda, Maryland, United States of America) of JW576-labeled band intensity (BODIPY fluorescence) from three independent replicates.

[2] = test system: MDA-MB231 human breast cancer xenografts; assay: PET/CT imaging and ex vivo biodistribution in mice bearing MDA-MB231 xenografts; set-up: species or system mouse
Protocol: In vivo microPET/CT imaging: All imaging was performed by the Integrated Small Animal Imaging Research Resource (iSAIRR) at the University of Chicago (Chicago, Illinois, United States of America) on a β-Cube and X-Cube (Molecubes NV, Ghent, Belgium). Athymic nude mice (males and females, aged 6 to 8 weeks; HSD strain, Harlan-Envigo, Indianapolis, Indiana, United States of America) were anesthetized via inhalation with 1.5-2% isoflurane and injected with approximately 150 μCi (5.55 Megabecquerel (MBq)) of [^18F]JW199 in 150 μL of physiologic saline through the lateral tail vein, followed by awake incubation for 1 hour and 45 minutes. MicroCT images were acquired using the general purpose protocol, with energy of 50 KeV and a tube current of 100 μA. Respiration rate and body temperature of the animal were constantly monitored during the entire scanning period with the p-Cube and X-Cube onboard monitoring system. […]
Dynamic reconstruction was performed using a three-dimensional OSEM algorithm with 400 μm isometric voxel size. […] 3D regions of interest (ROIs) were drawn and standardized uptake values (SUVs) and percent injected dose per cubic centimeter of tissue (% ID/cc) were calculated for each ROI and time point. % ID/cc was calculated as a ratio of tissue radioactivity concentration (mCi/g) at time of scan to total injected activity (millicurie (mCi)) at time of scan. […]

[3] = test system: other detected serine hydrolase targets; assay: Family-wide gel-based profiling of serine hydrolases in MDA-MB231 and PC3 cells (selectivity); assay type: cell-based, human; conditions: live cells
Protocol: as §1, with “For murine proteomes, mouse tissues were Dounce-homogenized on ice in cold PBS, followed by a low-speed spin (1,400×g, 5 min) to remove debris. After sonication, the membrane and soluble proteomes were fractionated as described above. All sample pellets were washed and resuspended in PBS via sonication.” left out, “Samples were stored at −80° C. until use.” left out
Gel-based Activity Profiling: Cell lysates were treated with 1 μM fluorophosphonate-rhodamine (FP-rho) for 30 min at room temperature (50 μL total reaction volume). Reactions were quenched with one volume of standard 4× sodium dodecyl sulfate/polyacrylamide gel electrophoresis (SDS/PAGE) reducing sample buffer, resolved on 10% acrylamide SDS/PAGE gels, and visualized in-gel with a fluorescence scanner sold under the tradename CHEMIDOC™ MP (Bio-Rad, Hercules, California, United States of America). Densitometric quantification of band intensities were used to calculate the percent inhibition via JW199. […]

## CC(C)c1ccccc1OC(=O)NCCc1ccc(OCC[18F])cc1 [[^18F]JW199, fluorine-18-labeled 2-isopropylphenyl-(4-(2-fluoroethoxy)phenethyl)carbamate]
[1]
  concentrations at which active NCEH1 is labeled in live cells: nM concentrations
[2]; 150 μCi i.v., dynamic PET/CT
  radiotracer accumulation in tumor: radiotracer accumulation in breast tumor xenograft cells
[2]; ex vivo quantitation, 3 hours after injection, breast cancer model
  total radioactivity in bulk tumor tissue relative to surrounding muscle: higher total radioactivity
[3]
  selectivity over other detected serine hydrolase targets: greater than 1,000 fold
